Data published in paper PMC5172606 (Archives of biochemistry and biophysics, 2016).

Biological target: T1, human soluble epoxide hydrolase (sEH) (Homo sapiens, UniProt P34913)
T1 sequence (P34913 1-555): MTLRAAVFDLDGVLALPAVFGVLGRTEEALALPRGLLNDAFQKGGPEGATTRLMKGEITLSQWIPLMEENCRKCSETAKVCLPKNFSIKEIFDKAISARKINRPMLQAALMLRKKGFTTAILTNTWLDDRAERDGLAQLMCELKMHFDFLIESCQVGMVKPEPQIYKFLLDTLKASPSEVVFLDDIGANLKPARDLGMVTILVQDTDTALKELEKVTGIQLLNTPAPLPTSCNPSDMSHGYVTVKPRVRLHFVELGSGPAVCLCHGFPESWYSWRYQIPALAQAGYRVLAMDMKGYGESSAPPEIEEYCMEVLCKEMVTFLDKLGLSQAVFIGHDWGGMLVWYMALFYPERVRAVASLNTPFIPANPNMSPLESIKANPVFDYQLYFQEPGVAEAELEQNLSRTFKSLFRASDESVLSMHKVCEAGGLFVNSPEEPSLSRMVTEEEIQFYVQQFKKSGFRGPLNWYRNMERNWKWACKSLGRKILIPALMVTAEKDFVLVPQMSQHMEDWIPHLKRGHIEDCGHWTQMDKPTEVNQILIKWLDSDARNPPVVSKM
Assay: radiometric assay with [3H]-tDPPO substrate
Type: biochemical

UC2389
IC50: 20 ± 0.5 nM
